{"source": "patent US20140272041A1", "about": "“METHODS OF REDUCING PATHOGENS DURING PROCESSING OR POST-PROCESSING OF BEEF, POULTRY AND OTHER MEAT PRODUCTS” (BIRKO Corporation, priority 2009, published 2014)", "key": {"[1]": {"system": "Escherichia coli serotype O157:H7 (ATCC 43888)", "experiment": "Log reduction on inoculated meat samples by immersion", "experimental": "Meat samples were allowed to equilibrate to ambient temperature (74° F.) and inoculated with 25 μl of a late log phase culture of either Escherichia coli serotype O157:H7 (ATCC 43888) or Salmonella enterica serovar Typhimurium (ATCC 14028). Samples were allowed to rest for 10 minutes for the bacteria to attach. After attachment the inoculated samples were immersed in the treatment solutions as detailed in each experiment described below. After immersion, meat samples were immediately placed into a sterile Whirlpack Bag with 10-15 ml of neutralizing buffer to inactivate any residual antimicrobial on the meat surface. Samples were massaged for 3 minutes to extract surviving bacteria from the meat. Bacterial counts in the fluid were enumerated by plating on Violet Red Bile Agar (E. coli) or Salmonella Shigella Agar (Salmonella) and counting colonies after at least 16-24 hours of incubation. […]"}, "[2]": {"system": "Salmonella enterica, ATCC 14028", "experiment": "Log kill in aqueous bacterial suspension, plating on TSA", "type": "cell-based", "conditions": "15 seconds, c. 74° F.", "experimental": "As before, reaction mixtures were incubated for 15 seconds at room temperature (c. 74° F.). The results are depicted in Table XII and graphed in FIG. 12.\nHowever, in this example the effectiveness of such mixtures was tested against Salmonella enterica, ATCC 14028. […] The balance was water. Increasing amounts of these “reagents” were added to a series of reaction tubes.\nAs before each reaction was initiated by the addition of bacteria, incubated at ambient temperature for 15 seconds and terminated by addition of quench buffer. The tests were performed at room temperature. The bacterial titer of each mixture was determined by preparation and plating of serial dilutions on TSA. The results for both reagents are reported in Table XIII and graphed in FIG. 13."}, "[3]": {"system": "Salmonella enterica serovar Typhimurium (ATCC 14028)", "experiment": "Log reduction on inoculated meat samples by immersion", "conditions": "5% (w/w) total acid (60% lactic+40% citric acid) + 1200 ppm SLS, meat samples immersed 3 minutes at 108° F. (Meat Experiment #43)", "experimental": "Meat samples were allowed to equilibrate to ambient temperature (74° F.) and inoculated with 25 μl of a late log phase culture of either Escherichia coli serotype O157:H7 (ATCC 43888) or Salmonella enterica serovar Typhimurium (ATCC 14028). Samples were allowed to rest for 10 minutes for the bacteria to attach. After attachment the inoculated samples were immersed in the treatment solutions as detailed in each experiment described below. After immersion, meat samples were immediately placed into a sterile Whirlpack Bag with 10-15 ml of neutralizing buffer to inactivate any residual antimicrobial on the meat surface. Samples were massaged for 3 minutes to extract surviving bacteria from the meat. Bacterial counts in the fluid were enumerated by plating on Violet Red Bile Agar (E. coli) or Salmonella Shigella Agar (Salmonella) and counting colonies after at least 16-24 hours of incubation.\nThe meat samples described in Example 16 were treated with 5% (w/w) total acid (60% lactic+40% citric acid) with addition of 1200 ppm of the anionic surfactant sodium lauryl sulfate (SLS) for 3 minutes at 108° F."}, "[4]": {"system": "E. coli ATCC 12435", "experiment": "Log kill / surviving titer in aqueous bacterial suspension, plating on TSA", "type": "cell-based, Escherichia coli", "conditions": "[…] wt./wt. % WAC in 2.5% lactic acid, 15 seconds, 74 to 80 degrees F.", "experimental": "The “reaction” (i.e. interaction of antimicrobial agent and the target organism) was initiated by the addition of bacteria to the antimicrobial solution. The reaction was allowed to proceed for the respective time periods listed in Table I (i.e., at least 15 seconds each) and was terminated at the end of that time by adding quench buffer comprising 3.2 M potassium phosphate buffer, pH 7.2. The sample then was evaluated using serial 10-fold dilutions into sterile phosphate buffer as needed to determine, on Tryptic Soy agar (“TSA”), the titer of surviving bacteria. TSA is a medium that allows the growth of most bacteria.\nThe reduction in the bacterial count is expressed as the “log kill” which is defined as log10 [initial cfu/ml]−log10 [remaining cfu/ml]; where “cfu” refers to “colony forming unit.” All log kills reported herein are positive “base 10.”). Inasmuch as the standard assay mixture contained only ca. 25×10^6 cfu initially (equivalent to 7.398 log) the theoretical maximum kill that can be measured with this assay system is ca. 7.4 log and the practical measuring limit is ca. 6 log. Therefore, high levels of log reduction were monitored by plating reaction mixtures directly (without dilution) onto agar medium. The results are reported in Table I and illustrated in graph format in FIG. 1. […] The tests were replicated with E. coli ATCC 43888, a pathogenic strain of E. coli O157:H7. […]\nAfter incubation for 15 seconds at ambient temperature the reaction was quenched by addition of phosphate buffer and the titer of surviving bacteria was determined by plating on TSA as described in the previous examples. […] The amphoteric and zwitterionic surfactants, which carry a net positive charge under the conditions of the reaction mixture, caused enhancement of the log kill by lactic acid. All anionic surfactants tested caused substantial enhancement of the log kill by lactic acid."}, "[5]": {"system": "E. coli ATCC 43888 (O157:H7)", "experiment": "Log kill in aqueous bacterial suspension, plating on TSA", "type": "cell-based, Escherichia coli"}, "[6]": {"conditions": "1200 ppm SLS, 5% total acid at ratio 4:6 citric acid:lactic acid, 2 minutes at 109-111° F., control 5% lactic acid only"}, "[7]": {"conditions": "1400 ppm SLS added to 5% total acid 60:40 lactic:citric, 3 minutes at 109° F."}}, "note": "Like-named read-outs stand apart in the source and are kept apart here."}
{"smiles": "CCCCCCCCCCCCOS(=O)(=O)[O-].[Na+]", "note": "[Sodium Lauryl Sulfate, sodium lauryl sulfate]", "values": [{"measurement": "effect of increasing SLS concentration on kill by lactic acid", "setting": "[1]; 4% (w/w) lactic acid with 0-1700 ppm sodium lauryl sulfate, 2 minutes at 108° F.", "value": "enhanced kill"}, {"measurement": "enhancement of reduction when SLS is included", "setting": "[1]; [6]", "value": "ca. 1.6 log"}, {"measurement": "increase of microbial reduction when SLS is included", "setting": "[1]; [6]", "value": 40, "unit": "fold"}, {"measurement": "enhancement of reduction when SLS is included", "setting": "[1]; [7]", "value": "ca. 1.6 log"}, {"measurement": "increase of microbial reduction when SLS is included", "setting": "[1]; [7]", "value": 40, "unit": "fold"}, {"measurement": "Log Kill", "setting": "[2]; sodium lauryl sulfate 0.004 wt./wt. % in […] lactic acid", "value": 3.82, "unit": "log"}, {"measurement": "Log Kill", "setting": "[2]; sodium lauryl sulfate 0.008 wt./wt. % in […] lactic acid", "value": 4.4, "unit": "log"}, {"measurement": "Log Kill", "setting": "[2]; sodium lauryl sulfate 0.012 wt./wt. % in […] lactic acid", "value": 5.489, "unit": "log"}, {"measurement": "Log Kill", "setting": "[2]; sodium lauryl sulfate 0.016 wt./wt. % in […] lactic acid", "value": 5.489, "unit": "log"}, {"measurement": "Log Kill", "setting": "[2]; sodium lauryl sulfate 0.020 wt./wt. % in […] lactic acid", "value": 5.97, "unit": "log"}, {"measurement": "Log Reduction", "setting": "[3]", "value": 3.28, "unit": "log"}, {"measurement": "Log Kill (Lactic Acid + Surfactant)", "setting": "[4]", "value": 6.43, "unit": "log"}, {"measurement": "Log Kill", "setting": "[5]", "value": 4.8, "unit": "log"}, {"measurement": "in 2.5% Lactic Acid (Log Kill)", "setting": "[5]", "value": 5.81, "unit": "log"}, {"measurement": "in […] Lactic Acid (Log Kill)", "setting": "[5]", "value": 5.83, "unit": "log"}, {"measurement": "Log Kill", "setting": "[5]; sodium lauryl sulfate 0.004 wt./wt. % in […] lactic acid, 15 seconds, 75 degrees F.", "value": 2.08, "unit": "log"}, {"measurement": "Log Kill", "setting": "[5]; sodium lauryl sulfate 0.012 wt./wt. % in […] lactic acid, 15 seconds, 75 degrees F.", "value": 5.92, "unit": "log"}, {"measurement": "Log Kill", "setting": "[5]; sodium lauryl sulfate 0.016 wt./wt. % in […] lactic acid, 15 seconds, 75 degrees F.", "value": 5.92, "unit": "log"}, {"measurement": "in 2.5% Lactic Acid (Log Kill)", "setting": "[5]; sodium lauryl sulfate 0.02 wt./wt. % in 2.5% lactic acid", "value": 4.81, "unit": "log"}, {"measurement": "in 2.5% Lactic Acid (Log Kill)", "setting": "[5]; sodium lauryl sulfate 0.04 wt./wt. % in 2.5% lactic acid", "value": 4.81, "unit": "log"}, {"measurement": "in […] Lactic Acid (Log Kill)", "setting": "[5]; sodium lauryl sulfate 0.04 wt./wt. % in […] lactic acid, 15 seconds, 75 degrees F.", "value": 5.83, "unit": "log"}, {"measurement": "in 2.5% Lactic Acid (Log Kill)", "setting": "[5]; sodium lauryl sulfate 0.06 wt./wt. % in 2.5% lactic acid", "value": 5.81, "unit": "log"}, {"measurement": "in […] Lactic Acid (Log Kill)", "setting": "[5]; sodium lauryl sulfate 0.06 wt./wt. % in […] lactic acid, 15 seconds, 75 degrees F.", "value": 5.34, "unit": "log"}, {"measurement": "in 2.5% Lactic Acid (Log Kill)", "setting": "[5]; sodium lauryl sulfate 0.10 wt./wt. % in 2.5% lactic acid", "value": 5.81, "unit": "log"}, {"measurement": "in […] Lactic Acid (Log Kill)", "setting": "[5]; sodium lauryl sulfate 0.10 wt./wt. % in […] lactic acid, 15 seconds, 75 degrees F.", "value": 5.83, "unit": "log"}]}
